Assay results reported in article PMC3842960, “Natural Stilbenoids Isolated from Grapevine Exhibiting Inhibitory Effects against HIV-1 Integrase and Eukaryote MOS1 Transposase In Vitro Activities” (PLoS ONE, 2013).

Legend:
Mos1 transposase (MOS1) [1] = target: T1, Mos1 transposase (MOS1) (Drosophila mauritiana, UniProt Q7JQ07); experiment: MOS1 in vitro ITR integration assay; format: biochemical, D. mauritiana; conditions: for inhibition of the integration step: 25 and 10 µM, molecules added after formation of MOS1-ITR complexes
T1 construct: involving the full-length Mos1 transposase (MOS1) was recently solved; made in house
T1 sequence (Q7JQ07 whole entry): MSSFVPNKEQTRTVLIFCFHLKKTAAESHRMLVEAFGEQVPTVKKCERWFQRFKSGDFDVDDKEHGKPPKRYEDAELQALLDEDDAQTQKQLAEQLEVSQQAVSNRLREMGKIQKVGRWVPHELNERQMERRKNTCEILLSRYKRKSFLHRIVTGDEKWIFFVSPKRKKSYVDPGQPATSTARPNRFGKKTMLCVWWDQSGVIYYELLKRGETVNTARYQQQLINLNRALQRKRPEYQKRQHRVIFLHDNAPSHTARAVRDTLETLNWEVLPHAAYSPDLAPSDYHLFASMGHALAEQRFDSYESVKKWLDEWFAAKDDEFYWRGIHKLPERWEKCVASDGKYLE
Description: These assays were performed using pre-cleaved 3′ITRs (PC-ITR), i.e. ITRs in the configuration expected after excision. […]. Prior to annealing, the transferred strand (70-TS-PC) was 5′-end labelled using T4 polynucleotide kinase (Promega) and γ-^32P-ATP following the manufacturer's instructions. Oligonucleotides were provided by Eurofins MWG Biotech (Germany) or Eurogentec (Belgium). Reaction mixtures containing 10 mM Tris-HCl (pH 9), 50 mM NaCl, 1 mM DTT, 5% glycerol, 100 ng BSA, 100 nM of labelled PC-ITR and 100 nM MBP-MOS1 in a final volume of 20 µl were incubated at 30°C for 30 min. The pBC plasmid (which contained the cat gene, a hot-spot for Mos1 insertion) was then added to 30 ng/µL along with 5 mM MgCl2. Molecules (25 or 10 µM, as specified) or DMSO (2%) were added to the reaction mixtures along with the target DNA to estimate their effect on integration. Reactions were carried out for 3 hours at 30°C. 0.1 mg/ml proteinase K and 0.1% SDS were added to stop the reaction. DNA products were purified by phenol-chloroform extraction and ethanol precipitated using standard techniques. DNA products were resuspended in DNA loading buffer, then separated onto a 1% agarose gel in 1X TAE (Tris Acetate EDTA) buffer. The gel was dried onto a nitrocellulose membrane (Hybond N+, GE Healthcare), scanned using a Storm, and analysed with ImageQuant software. Signals were quantified using ImageQuant software. Efficiency of integration was calculated as the intensity of the integration signal divided by the intensity of free target signal plus integration signal. Each condition was tested at least twice.
The assay used for this step is similar to the HIV-1 IN concerted integration. Briefly, pre-cleaved labelled ITRs are used to form the integration complex. A super-coiled plasmid is used as target DNA. Integration events give a linear labelled plasmid, which can be detected. In these tests, the molecules are added after formation of MOS1-ITR complexes, along with a target plasmid to solely examine the integration inhibition. […] Controls correspond to assays performed without molecule but with DMSO. Reactions were performed at least twice for each selected molecule (leachianol G, leachianol F, quadrangularin A, hopeaphenol, vitisin B and pallidol) and the excision activity is shown in figure 8B .

HIV-1 IN = HIV-1 IN (Human immunodeficiency virus type 1 group M subtype B, UniProt P04585); experiment: HIV-1 IN in vitro concerted integration assay (processed or unprocessed donor DNA)
Mos1 transposase (MOS1) [2] = target: T1, Mos1 transposase (MOS1); experiment: MOS1 in vitro excision assay; format: biochemical, D. mauritiana; conditions: for inhibition at 25 µM: DMSO control as reference, read-out: inhibition of in vitro excision reaction; for IC50: concentration range, sigmoid dose-response fit
Description: Basic excision reaction mixtures contained 10 mM Tris-HCl (pH 9), 50 mM NaCl, 20 mM MgCl2, 0.5 mM EDTA, 0.5 mM DTT, 100 ng BSA, 600 ng of super-coiled pBC-3T3, and 80 nM MBP-MOS1 (added last) in a volume of 20 µl. Molecules (25 or 10 µM, as specified) or DMSO (2%) were added to the reaction mixtures before the transposase. The reactions were allowed to proceed at 30°C for 30 min before 2 µl of stop solution (loading buffer) were added. The reaction mixtures were then incubated at 65°C for 10 min. Each reaction was analysed by overnight electrophoresis at 2.7 V/cm on a TAE-buffered 1% agarose gel with ethidium bromide (0.3 mg/ml). After electrophoresis, the gel was photographed on a transilluminator. ImageGauge 4.22 software (Fujifilm) was used to quantify the bands. Each condition was tested at least twice.
The ability of the selected molecules to inhibit excision was tested in vitro using the pBC-3T3 plasmid as the transposon donor. MOS1 triggers the excision of the pseudo-Mos1 from the plasmid producing two linear DNA fragments, the transposon and the plasmid backbone, together with intermediate products (open circle plasmids which contained single strand nicks and linear plasmids which contained a double strand nick at one ITR). After excision, the transposon could be reintegrated, making it difficult to detect in electrophoresis. The activity of the molecules was measured by quantifying the plasmid backbone, the end product of the reaction. The assays were performed with final concentrations of 25 and 10 µM molecules. Controls correspond to assays performed without molecule but with DMSO. […] Reactions were performed at least twice for each selected molecules (leachianol G, leachianol F, quadrangularin A, hopeaphenol, vitisin B and pallidol) and the excision activity is reported in figure 7B . […] The six selected molecules were then tested for the integration step of Mos1 transposition.

| SMILES | IC50 (Mos1 transposase (MOS1) [1]) [µM] | inhibition of the integration step (Mos1 transposase (MOS1) [1]) | inhibition at 10 µM (HIV-1 IN; read-out: inhibition of concerted integration) [%] | inhibition at 25 µM (Mos1 transposase (MOS1) [2]) [%] | IC50 (Mos1 transposase (MOS1) [2]) [µM] | inhibition of concerted integration from processed and unprocessed donor (HIV-1 IN; increasing concentrations) |
| --- | --- | --- | --- | --- | --- | --- |
| Oc1ccc([C@@H]2c3c(O)cc(O)cc3[C@H]3c4c(cc(O)cc4C2C2c4cc(O)cc5c4[C@H](c4cc(O)cc(O)c4[C@H]2c2ccc(O)cc2)[C@@H](c2ccc(O)cc2)O5)O[C@@H]3c2ccc(O)cc2)cc1 (stereo partly shown) [hopeaphenol] | ~6.5 | significantly inhibited | < 5 | > 50 | 8.5 | – |
| Oc1ccc([C@@H]2c3c(O)cc(O)cc3[C@H]3[C@H](c4ccc(O)cc4)c4c(O)cc(O)cc4[C@@H]23)cc1 [pallidol] | ~10 | significantly inhibited | – | > 50 | 8 | inhibited both activities |
